In PubChem BioAssay (NCI):
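Five concentrations, 48 hours, 96-well plates. TGI denotes the concentration required for complete inhibition of growth.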

Experiments:
Assay in all cases: NCI anticancer screen, dose series, 48 h
[1] = test system: 786-0 renal
[2] = test system: A498 renal
[3] = test system: A549 NSCLC
[4] = test system: ACHN renal
[5] = test system: BT-549 breast
[6] = test system: CAKI-1 renal
[7] = test system: CCRF-CEM leukemia
[8] = test system: COLO 205 colon
[9] = test system: DU-145 prostate
[10] = test system: EKVX NSCLC
[11] = test system: HCT-116 colon
[12] = test system: HCT-15 colon
[13] = test system: HL-60(TB) leukemia
[14] = test system: HOP-92 NSCLC
[15] = test system: HS 578T breast
[16] = test system: HT29 colon
[17] = test system: IGROV1 ovarian
[18] = test system: K-562 leukemia
[19] = test system: LOX IMVI melanoma
[20] = test system: M14 melanoma
[21] = test system: MALME-3M melanoma
[22] = test system: MCF7 breast
[23] = test system: MDA-MB-231 breast
[24] = test system: MDA-MB-435
[25] = test system: MDA-N
[26] = test system: MOLT-4 leukemia
[27] = test system: NCI-H226 lung
[28] = test system: NCI-H23 lung
[29] = test system: NCI-H522 lung
[30] = test system: NCI/ADR-RES ovarian
[31] = test system: OVCAR-3 ovarian
[32] = test system: OVCAR-4 ovarian
[33] = test system: OVCAR-5 ovarian
[34] = test system: OVCAR-8 ovarian
[35] = test system: PC-3 prostate
[36] = test system: RPMI-8226 leukemia
[37] = test system: RXF 393 renal
[38] = test system: SF-268 CNS
[39] = test system: SF-539 CNS
[40] = test system: SK-MEL-2 melanoma
[41] = test system: SK-MEL-28 melanoma
[42] = test system: SK-MEL-5 melanoma
[43] = test system: SN12C renal
[44] = test system: SNB-19 CNS
[45] = test system: SNB-75 CNS
[46] = test system: SR leukemia
[47] = test system: SW-620 colon
[48] = test system: T-47D breast
[49] = test system: UACC-62 melanoma
[50] = test system: UO-31 renal
[51] = test system: HOP-62 NSCLC
[52] = test system: KM12 colon
[53] = test system: NCI-H460 lung
[54] = test system: SF-295 CNS
[55] = test system: SK-OV-3 ovarian
[56] = test system: TK-10 renal
[57] = test system: U251 CNS
[58] = test system: UACC-257 melanoma

CCOc1cc(C2CC(c3ccc(NS(=O)(=O)c4cc([N+](=O)[O-])ccc4C)cc3)=NN2)ccc1O (configuration not stated)
TGI [1]: 67.8 µM
TGI [2]: 70.7 µM
TGI [3]: > 100 µM
TGI [4]: 76.7 µM
TGI [5]: 51.6 µM
TGI [6]: > 100 µM
TGI [7]: > 100 µM
TGI [8]: 43 µM
TGI [9]: > 100 µM
TGI [10]: 53.3 µM
TGI [11]: 50.6 µM
TGI [12]: 67.3 µM
TGI [13]: 50.5 µM
TGI [14]: > 100 µM
TGI [15]: > 100 µM
TGI [16]: 72.2 µM
TGI [17]: > 100 µM
TGI [18]: 99 µM
TGI [19]: 53 µM
TGI [20]: 43.8 µM
TGI [21]: 75.3 µM
TGI [22]: 49.6 µM
TGI [23]: 89.2 µM
TGI [24]: 85.9 µM
TGI [25]: > 100 µM
TGI [26]: 48.8 µM
TGI [27]: > 100 µM
TGI [28]: 80.7 µM
TGI [29]: > 100 µM
TGI [30]: 71.3 µM
TGI [31]: 37.3 µM
TGI [32]: 71.4 µM
TGI [33]: > 100 µM
TGI [34]: > 100 µM
TGI [35]: > 100 µM
TGI [36]: > 100 µM
TGI [37]: 40.4 µM
TGI [38]: > 100 µM
TGI [39]: > 100 µM
TGI [40]: 49.9 µM
TGI [41]: > 100 µM
TGI [42]: 37.8 µM
TGI [43]: 65.2 µM
TGI [44]: > 100 µM
TGI [45]: 84 µM
TGI [46]: 53.6 µM
TGI [47]: > 100 µM
TGI [48]: 82.9 µM
TGI [49]: 30.3 µM
TGI [50]: 84 µM

O=C(O)CSc1ncccc1[N+](=O)[O-]
TGI [1]: > 100 µM
TGI [2]: > 100 µM
TGI [3]: > 100 µM
TGI [4]: > 100 µM
TGI [5]: > 100 µM
TGI [6]: > 100 µM
TGI [7]: > 100 µM
TGI [8]: > 100 µM
TGI [9]: > 100 µM
TGI [10]: > 100 µM
TGI [11]: > 100 µM
TGI [12]: > 100 µM
TGI [13]: > 100 µM
TGI [51]: > 100 µM
TGI [14]: > 100 µM
TGI [15]: > 100 µM
TGI [16]: > 100 µM
TGI [17]: > 100 µM
TGI [18]: > 100 µM
TGI [52]: > 100 µM
TGI [19]: > 100 µM
TGI [20]: > 100 µM
TGI [21]: > 100 µM
TGI [22]: > 100 µM
TGI [23]: > 100 µM
TGI [24]: > 100 µM
TGI [25]: > 100 µM
TGI [26]: > 100 µM
TGI [27]: > 100 µM
TGI [28]: > 100 µM
TGI [53]: > 100 µM
TGI [29]: > 100 µM
TGI [30]: > 100 µM
TGI [31]: > 100 µM
TGI [32]: > 100 µM
TGI [33]: > 100 µM
TGI [34]: > 100 µM
TGI [35]: > 100 µM
TGI [37]: > 100 µM
TGI [38]: > 100 µM
TGI [54]: > 100 µM
TGI [39]: > 100 µM
TGI [40]: > 100 µM
TGI [41]: > 100 µM
TGI [42]: > 100 µM
TGI [55]: > 100 µM
TGI [43]: > 100 µM
TGI [44]: > 100 µM
TGI [45]: > 100 µM
TGI [46]: > 100 µM
TGI [47]: > 100 µM
TGI [48]: > 100 µM
TGI [56]: > 100 µM
TGI [57]: > 100 µM
TGI [58]: > 100 µM
TGI [49]: > 100 µM
TGI [50]: > 100 µM
